Columns and labels:
Map3 = target: T1, Map3 (Schizosaccharomyces pombe, UniProt P31397); assay: Shmooing assay of synthetic M-factor peptides on P cells lacking rgs1+ (TS405); format: cell-based, S. pombe; conditions: EMM2−N
T1 construct: an M-factor-sensitive strain lacking the rgs1^+ gene [53]; endogenous in cells; host or cells: S. pombe heterothallic haploid P cells lacking rgs1+ (TS405)
T1 sequence (P31397 1-365): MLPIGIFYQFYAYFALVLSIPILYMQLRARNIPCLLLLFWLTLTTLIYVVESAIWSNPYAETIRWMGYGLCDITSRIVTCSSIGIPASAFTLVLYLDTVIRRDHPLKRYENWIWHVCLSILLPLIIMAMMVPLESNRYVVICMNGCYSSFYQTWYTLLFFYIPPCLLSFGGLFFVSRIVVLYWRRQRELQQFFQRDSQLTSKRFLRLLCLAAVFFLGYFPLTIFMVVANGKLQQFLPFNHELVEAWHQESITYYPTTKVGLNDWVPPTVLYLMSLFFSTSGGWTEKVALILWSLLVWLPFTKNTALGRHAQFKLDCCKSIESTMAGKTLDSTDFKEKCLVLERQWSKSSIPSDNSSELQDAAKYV
Procedure: Under these conditions, approximately 40% of cells treated with Sp-M-factor peptide underwent shmoo formation, whereas no cells treated with So-M-factor peptide underwent shmooing (S5B Fig). When the concentration of So-M-factor was raised to 1,000 nM, the cells underwent shmoo elongation a little (S5B Fig).
P-factor and M-factor peptides were chemically synthesized (Eurofins) for the shmooing assay. The purity of the preparations was over 95% (HPLC). P-factor was dissolved in dimethyl sulfoxide (DMSO) at a concentration of 500 μM, and M-factor was dissolved in methanol (MeOH) at a concentration of 1 mM. The stock solutions were diluted with culture medium to the appropriate dilution ratio. For the assay, heterothallic haploid cells were grown in YE medium overnight, washed with sterilized water three times, and then resuspended in EMM2−N medium at a cell density of 4 × 10^7 cells/ml. The cells were treated with the synthetic pheromone and incubated for exactly 24 hours with gentle shaking.
To assess whether Mam2 could recognize different P-factors, a P-factor sensitive strain lacking the sxa2^+ gene (TS402) was used. The cells were incubated with synthetic P-factors at different concentrations (0, 10, 100, and 1,000 nM) for 24 hours and observed by a DIC microscope. Images were recorded, and the L and W of a cell were measured to determine the L/W ratio. […] In all cases, at least 100 cells each were measured. […] The cells were treated with synthetic M-factors at different concentrations (0, 100, and 1,000 nM) for 24 hours, and analyzed, as described above.
Supplementary file pbio.3000101.s005.tif: S5 Fig Effects of mating pheromones of S. octosporus on S. pombe cells. […] The ability of each M-factor peptide to induce shmooing was assessed by the L/W ratio of a cell, as described in S3 Fig. (C) Comparison of the amino sequences of Sp-P-factors and So-P-factors. […] The shmooing assay was evaluated as described in S3 Fig. EMM2−N, Edinburgh Minimal Medium 2 lacking nitrogen; L, length; M, Minus; P, Plus; rgs, regulator of G-protein signaling; So, S. octosporus; Sp, S. pombe; W, width. […]

S. pombe cells = assay: Quantitative assay of zygote formation (mating efficiency), S. pombe strains; format: cell-based; conditions: peptide produced by engineered strain; mfm1 gene integrated in M-factorless strain FY23412; MEA, 2 days, 30 °C; mean ± SD of triplicate
Procedure: The resulting strains each produced one of the six P-factors. The mating efficiency of these strains was assessed by the frequency of zygotes. […] To determine whether the order of nucleotide sequences encoding mature P-factor affects zygote frequency, we also introduced a map2 gene carrying a permuted sequence of repeats (P2-P3-P2-P1) into the FY23418 strain. Similar to the strain with the native sequence, this strain also mated at high frequency (74.2% ± 1.7%) (Fig 2D); therefore, the effect of peptide-coding position appears small.
Next, we assessed whether the pheromone peptides of S. octosporus are effective on S. pombe cells. […] Next, we replaced the Sp-M-factor–encoding sequence in the mfm1^+ gene with the So-M-factor–encoding sequence (mfm1^So). […] In short, S. pombe P cells were unable to mate with M cells producing So-M-factor. […] We also replaced the So-P-factor–encoding sequence (7 repeats) in the So-map2^+ gene with the Sp-P-factor–encoding sequence (4 repeats) (So-map2^Sp) in S. octosporus cells. […]
Cells grown on YEA plates overnight were resuspended in sterilized water to a cell density of 1 × 10^8 cells/ml. […] The percentage of zygotes was calculated, as described previously. In all cases, triplicate samples (at least 300 cells each) were counted, and the mean and standard deviation (SD) were calculated.

[1] = TS405 P cells (rgs1Δ), 100 nM synthetic M-factor, one day

| Substance | Shmooing at 100 nM (in words) (Map3; [1]) | Shmoo elongation at 1,000 nM (in words) (Map3; TS405 P cells (rgs1Δ), 1,000 nM synthetic M-factor, 24 hours) | Mating efficiency (zygotes) of S. pombe strain producing only this M-factor (S. pombe cells) | Proportion of cells that underwent shmoo formation, 100 nM (Map3; [1]) |
| --- | --- | --- | --- | --- |
| YQPKPPAMC^Far-OCH3 [So-M-factor, putative M-factor of S. octosporus, farnesylated methylated nonapeptide] | no cells | a little | completely sterile |  |
| YTPKVPYMC^Far-OCH3 [Sp-M-factor, S. pombe mature M-factor, farnesylated and methylated peptide of nine amino acids, reference compound] |  |  | 72.1% ± 3.7% | approximately 40% |

Reference: publication PMC6342294, “Asymmetric diversification of mating pheromones in fission yeast” (PLoS Biology, 2019)
